For four compounds, IC50 results are on record in ChEMBL document CHEMBL1124726, “Novel [(diazomethyl)carbonyl]-1,2,3,4-tetrahydronaphthalene derivatives as potential photoaffinity ligands for the 5-HT1A receptor” (J Med Chem, 1990).

Each structure is given as a SMILES string. pIC50: −log10 of the molar value.

For assay [1], the target named is T1, 5-hydroxytryptamine receptor 1A (Rattus norvegicus, UniProt P19327).
T1 sequence (P19327 whole entry): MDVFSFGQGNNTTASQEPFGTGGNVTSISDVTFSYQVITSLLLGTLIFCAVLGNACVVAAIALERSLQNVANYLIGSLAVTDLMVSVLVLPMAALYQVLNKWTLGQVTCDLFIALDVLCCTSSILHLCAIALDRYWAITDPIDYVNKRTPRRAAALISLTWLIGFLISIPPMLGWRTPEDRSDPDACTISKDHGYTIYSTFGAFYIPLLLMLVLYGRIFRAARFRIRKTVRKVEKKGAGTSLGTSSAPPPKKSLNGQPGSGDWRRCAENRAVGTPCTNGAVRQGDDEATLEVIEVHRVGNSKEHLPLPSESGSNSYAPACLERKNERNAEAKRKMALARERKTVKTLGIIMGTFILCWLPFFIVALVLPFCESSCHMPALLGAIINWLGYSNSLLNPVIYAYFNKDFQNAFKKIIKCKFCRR
Put plainly: Binding affinity to 5-hydroxytryptamine 1A receptor in rat cortex using [3H]-8-OH- DPAT as radioligand.

Assay [2] concerns the target T1, 5-hydroxytryptamine receptor 1A. Put plainly: Binding affinity to 5-hydroxytryptamine 1A receptor in rat hippocampus using [3H]-8-OH- DPAT as radioligand. Type of assay: tissue-based.

For orientation: pIC50 means the negative decadic logarithm of the IC50, by convention in mol/L. Regarding `CCCN(CCC)C1CCc2cccc(OCC(=O)C=[N+]=[N-])c2C1` (configuration not stated), the pIC50 is 7.14 in assay [1] and 7.11 in assay [2].

As for `CCCN(CCC)C1CCc2cccc(OC(=O)[CH-][N+]#N)c2C1` (configuration not stated), the negative logarithm of the IC50 (pIC50) in assay [1] was 6.97; in assay [2], 6.81.

In assay [1], `CCCN(CCC)C1CCc2cccc(C(=O)OC)c2C1` (configuration not stated) showed a pIC50 of 8.27.

Take `CCCN(CCC)C1CCc2cccc(C(=O)[CH-][N+]#N)c2C1` (configuration not stated): the figures for the pIC50 in assay [1] and in assay [2] were 7.70 and 7.62, respectively.
